{"source": "patent US10220033B2", "about": "“Substituted benzoxazepine for cancer therapy” (University of Cape Town, priority 2014, dated 2019)", "format_in_all_cases": "cell-based", "key": {"[1]": {"system": "DMB and FG0 non-cancer fibroblast cells", "assay": "Cell proliferation assay (MTT), non-cancer cells", "experimental": "To assay for cell proliferation after Compound A treatment, 5000 cells/well were plated in 96-well plates and treated with 5, 10 or 15 μM Compound A, after which cell proliferation was monitored every 24 hours for four days, using MTT.\nThis effect was sustained for the full 5 day time period, confirming that there was no population of cells that recovered from the treatment."}, "[2]": {"system": "endogenous Kpnα2 nuclear localisation in CaSki cells", "assay": "Nuclear and cytoplasmic protein extraction, Western Blot", "conditions": "IC50 concentration, 48 hours (FIGS. 11, 12)", "experimental": "(§1) Nuclear and cytoplasmic protein fractionation was performed using the NE-PER Nuclear Protein Extraction Kit (ThermoScientific, Rockford, Ill., USA), according to the manufacturer's instructions. […] Western Blot analysis was performed using a goat anti-Karyopherin α2 (C-20) antibody (sc-6917, Santa Cruz Biotechnology), and a rabbit anti-NFYA (H-209) antibody (sc-10779, Santa Cruz Biotechnology). An anti-β-tubulin (H-235) antibody (sc-9104, Santa Cruz Biotechnology) was used to control for cytoplasmic protein loading and a rabbit anti-TATA-box binding protein (TBP) (N-12) and antibody (sc-204, Santa Cruz Biotechnology) to control for nuclear protein loading. Densitometry was performed using Image J."}, "[3]": {"system": "NFY nuclear localisation in CaSki cells", "assay": "Nuclear and cytoplasmic protein extraction, Western Blot", "conditions": "IC50 concentration, 48 hours (FIGS. 11, 12)", "experimental": "as §1"}}}
{"smiles": "CN(C)CCCn1c(N)c(-c2nc3ccccc3[nH]2)c2nc3ccccc3nc21", "note": "[Compound A, 3-(1H-benzimidazol-2-yl)-1-(3-dimethylaminopropyl)pyrrolo[5,4-b]quinoxalin-2-amine]", "values": [{"measurement": "cell proliferation", "setting": "[1]; 10 μM (FIGS. 21 E and F)", "value": "proliferated relatively normally"}, {"measurement": "time within which cell death occurred", "setting": "[1]; 15 μM", "value": "24 to 48", "unit": "h"}, {"measurement": "amount of Kpnα2 in the nucleus", "setting": "[2]", "value": "decrease"}, {"measurement": "NFY in the nuclear fraction", "setting": "[3]", "value": "decrease"}]}
